These results are taken from US11859248B2, “Nucleic acid modification and identification method” (IMBA—INSTITUT FÜR MOLEKULARE BIOTECHNOLOGIE GMBH, priority 2017, dated 2024).

The assay deals with reverse transcriptases (Superscript II, Superscript III, Quant-seq RT). In words: Reverse transcription of synthetic thiol-nucleotide-containing RNA followed by high-throughput sequencing. As to conditions: after iodoacetamide-treatment. The assay is classed as biochemical. The method, then:
Primer extension assays were essentially performed as described previously by Nilsen et al. (Cold Spring Harb Protoc. 2013, 1182-1185). Briefly, template RNA oligonucleotides (5L-let-7-3L or 5L-let-7-s^4Up9-3L; Dharmacon; see Table for sequences) were deprotected according to the instructions of the manufacturer and purified by denaturing polyacrylamide gel-elution. 100 μM purified RNA oligonucleotides were treated with 10 mM iodoacetamide (+IAA) or EtOH (−IAA) in standard reaction conditions (50% DMSO, 50 mM sodiumphosphate buffer, pH 8) for 15 min at 50° C. The reaction was stopped by addition of 20 mM DTT, followed by ethanol precipitation. RT primer (see Table for sequence) was 5′ radiolabeled using γ-^32P-ATP (Perkin-Elmer) and T4-polynucleotide kinase (NEB), followed by denaturing polyacrylamide gel-purification. 640 nM γ-^32P-RT primer was annealed to 400 nM 5L-let-7-3L or 5L-let-7-s^4Up9-3L in 2× annealing buffer (500 mM KCl, 50 mM Tris pH 8.3) in a PCR machine (3 min 95° C., 30 sec 85° C. Ramp 0.5° C./s, 5 min 25° C. Ramp 0.1° C./s). Reverse transcription was performed using Superscript II (Invitrogen), Superscript III (Invitrogen), or Quant-seq RT (Lexogen) as recommended by the manufacturer. For dideoxynucleotide reactions, a final concentration of 500 μM ddNTP (as indicated) was added to RT reactions. Upon completion, RT reactions were resuspended in formamide loading buffer (Gel loading buffer II, Thermo Fisher Scientific) and subjected to 12.5% denaturing polyacrylamide gel electrophoresis. Gels were dried, exposed to storage phosphor screen (PerkinElmer), imaged on a Typhoon TRIO variable mode imager (Amersham Biosciences), and quantified using ImageQuant TL v7.0 (GE Healthcare). […]
For sequencing analysis of synthetic RNA samples (FIG. 5) barcoded libraries were demultiplexed using Picard Tools BamIndexDecoder v1.13 allowing 0 mismatches in the barcode. […] Remaining aligned reads were converted to pileup format. […] Output table was analyzed and plotted in Excel v15.22 (Microsoft) and Prism v7.0a (GraphPad). […]

`O=c1[nH]c(=S)ccn1[C@@H]1O[C@H](CO)[C@@H](O)[C@H]1O` [s^4U, 4-thiouridine]: the “increase in T to C conversion” value was found to be 8.5 fold. The “mutation rate (T to C)” value (all tested RTs) is listed as “more than 0.94”.
